Reference: patent US20090137572A1, “2-substituted-4-heteroaryl-pyrimidines useful for the treatment of proliferative disorders” (priority 2004, published 2009)

Tests used:
CDK4-cyclin D1 = CDK4-cyclin D1 (Homo sapiens, UniProt P11802); assay: Kinase assay (radioactive phosphate incorporation), CDK4-cyclin D1; type: biochemical; settings: read-out: Kinase Inhibition pIC50 CDK4-cyclin D1 (converted)
Outline: (§1)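 Recombinant kinases (2-4 μg) with polypeptide substrates in pH 7.4 MOPS/β-glycerophosphate buffer. Reactions started with 15 mM MgCl2 + 100 μM ATP containing [γ-32P]-ATP and incubated at 30° C. Filter-bound incorporated radioactivity counted by scintillation; compounds diluted from DMSO stocks into 10% DMSO buffer.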

CDK2-cyclin A = CDK2-cyclin A (Homo sapiens, UniProt P24941); assay: Kinase assay (radioactive phosphate incorporation), CDK2-cyclin A; type: biochemical; settings: read-out: Kinase Inhibition pIC50 CDK2-cyclin A (converted)
Description: (§2) Kinase assays. The compounds of the invention above were investigated for their ability to inhibit the enzymatic activity of various protein kinases (Table 2). This was achieved by measurement of incorporation of radioactive phosphate from ATP into appropriate polypeptide substrates. Recombinant protein kinases and kinase complexes were produced or obtained commercially. Assays were performed using 96-well plates and appropriate assay buffers (typically 25 mM β-glycerophosphate, 20 mM MOPS, 5 mM EGTA, 1 mM DTT, 1 mM […], pH 7.4), into which were added 2-4 μg of active enzyme with appropriate substrates. The reactions were initiated by addition of Mg/ATP mix (15 mM MgCl2+100 μM ATP with 30-50 kBq per well of [γ-^32P]-ATP) and mixtures incubated as required at 30° C. Reactions were stopped on ice, followed by filtration through p81 filterplates or GF/C filterplates (Whatman Polyfiltronics, Kent, UK). After washing 3 times with 75 mM aq orthophosphoric acid, plates were dried, scintillant added and incorporated radioactivity measured in a scintillation counter (TopCount, Packard Instruments, Pangbourne, Berks, UK). Compounds for kinase assay were made up as 10 mM stocks in DMSO and diluted into 10% DMSO in assay buffer.

CDK2-cycline E = CDK2-cycline E (Homo sapiens, UniProt P24941); assay: Kinase assay (radioactive phosphate incorporation), CDK2-cyclin E; type: biochemical; settings: read-out: Kinase Inhibition pIC50 CDK2-cycline E (converted)
Outline: as §1

CDK1-cyclin B = CDK1-cyclin B (Homo sapiens, UniProt P06493); assay: Kinase assay (radioactive phosphate incorporation), CDK1-cyclin B; type: biochemical; settings: read-out: Kinase Inhibition pIC50 CDK1-cyclin B (converted)
Sequence of CDK1-cyclin B (P06493 whole entry): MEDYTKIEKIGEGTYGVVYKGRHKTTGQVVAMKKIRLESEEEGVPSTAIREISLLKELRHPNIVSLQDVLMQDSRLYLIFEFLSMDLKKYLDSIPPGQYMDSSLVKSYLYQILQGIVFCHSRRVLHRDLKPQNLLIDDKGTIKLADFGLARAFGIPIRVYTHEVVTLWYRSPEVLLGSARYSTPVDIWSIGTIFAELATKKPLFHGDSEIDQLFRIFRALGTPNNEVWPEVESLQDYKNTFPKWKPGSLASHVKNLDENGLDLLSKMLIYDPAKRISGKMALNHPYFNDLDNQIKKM
Sequence of CDK1-cyclin B (P14635 whole entry partner): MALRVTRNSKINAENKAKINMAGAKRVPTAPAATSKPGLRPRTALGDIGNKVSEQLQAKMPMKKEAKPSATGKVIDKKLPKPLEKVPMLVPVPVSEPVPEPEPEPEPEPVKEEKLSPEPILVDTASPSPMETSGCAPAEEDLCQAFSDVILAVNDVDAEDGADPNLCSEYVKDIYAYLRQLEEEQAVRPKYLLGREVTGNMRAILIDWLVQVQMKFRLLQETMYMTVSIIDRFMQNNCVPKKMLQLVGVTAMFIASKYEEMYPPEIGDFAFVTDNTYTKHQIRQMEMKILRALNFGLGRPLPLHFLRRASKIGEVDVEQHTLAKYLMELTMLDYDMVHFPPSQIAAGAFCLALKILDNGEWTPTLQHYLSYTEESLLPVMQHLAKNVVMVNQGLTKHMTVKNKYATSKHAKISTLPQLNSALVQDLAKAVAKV
Outline: as §1

CDK7/cyclin H = CDK7/cyclin H (Homo sapiens, UniProt P50613); assay: CDK 7 assay (CTD peptide substrate); type: biochemical; settings: read-out: Kinase Inhibition pIC50 CDK7-cyclin H (converted)
Sequence of CDK7/cyclin H (P50613 whole entry): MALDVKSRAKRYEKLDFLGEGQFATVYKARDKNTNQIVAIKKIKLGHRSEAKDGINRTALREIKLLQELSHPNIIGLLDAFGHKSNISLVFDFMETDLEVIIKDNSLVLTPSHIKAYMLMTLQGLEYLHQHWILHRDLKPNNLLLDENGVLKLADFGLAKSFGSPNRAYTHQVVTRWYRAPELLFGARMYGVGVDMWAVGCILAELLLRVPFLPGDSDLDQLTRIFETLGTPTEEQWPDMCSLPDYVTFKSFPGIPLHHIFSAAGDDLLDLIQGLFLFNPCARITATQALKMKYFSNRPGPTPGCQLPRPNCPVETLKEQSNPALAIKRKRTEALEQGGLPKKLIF
Sequence of CDK7/cyclin H (P51946 whole entry partner): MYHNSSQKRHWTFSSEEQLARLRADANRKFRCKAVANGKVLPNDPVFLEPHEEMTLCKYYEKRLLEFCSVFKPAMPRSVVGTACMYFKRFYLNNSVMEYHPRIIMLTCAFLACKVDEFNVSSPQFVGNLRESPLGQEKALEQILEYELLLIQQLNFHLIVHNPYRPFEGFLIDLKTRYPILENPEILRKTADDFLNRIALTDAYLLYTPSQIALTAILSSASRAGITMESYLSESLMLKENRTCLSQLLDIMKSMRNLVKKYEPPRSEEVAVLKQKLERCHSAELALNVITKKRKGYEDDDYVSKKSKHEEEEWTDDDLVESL
Outline: (§3)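 Radiometric assay: recombinant human CDK9/cyclin T1 or CDK7/cyclin H with biotinylated CTD heptapeptide-repeat substrate, 100 μM ATP with [γ-32P]ATP, 15 mM MgCl2, MOPS pH 7.2, 45 min at 30 °C. Avidin-captured substrate filtered onto P81; 32P incorporation counted by scintillation.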

CDK9/cyclin T1 = CDK9/cyclin T1 (Homo sapiens, UniProt P50750); assay: CDK 9 assay (CTD peptide substrate); type: biochemical; settings: read-out: Kinase Inhibition pIC50 CDK9-cyclin T1 (converted)
Sequence of CDK9/cyclin T1 (P50750 whole entry): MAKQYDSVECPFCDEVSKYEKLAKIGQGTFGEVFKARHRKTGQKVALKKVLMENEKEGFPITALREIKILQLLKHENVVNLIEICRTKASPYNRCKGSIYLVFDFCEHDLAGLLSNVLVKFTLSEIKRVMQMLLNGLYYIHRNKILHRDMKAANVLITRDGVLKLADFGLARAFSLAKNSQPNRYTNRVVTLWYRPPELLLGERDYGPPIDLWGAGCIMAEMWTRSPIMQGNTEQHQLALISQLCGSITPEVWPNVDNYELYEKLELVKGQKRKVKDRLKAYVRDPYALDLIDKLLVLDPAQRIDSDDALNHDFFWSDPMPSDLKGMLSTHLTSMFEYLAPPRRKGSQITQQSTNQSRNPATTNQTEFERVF
Sequence of CDK9/cyclin T1 (O60563 whole entry partner): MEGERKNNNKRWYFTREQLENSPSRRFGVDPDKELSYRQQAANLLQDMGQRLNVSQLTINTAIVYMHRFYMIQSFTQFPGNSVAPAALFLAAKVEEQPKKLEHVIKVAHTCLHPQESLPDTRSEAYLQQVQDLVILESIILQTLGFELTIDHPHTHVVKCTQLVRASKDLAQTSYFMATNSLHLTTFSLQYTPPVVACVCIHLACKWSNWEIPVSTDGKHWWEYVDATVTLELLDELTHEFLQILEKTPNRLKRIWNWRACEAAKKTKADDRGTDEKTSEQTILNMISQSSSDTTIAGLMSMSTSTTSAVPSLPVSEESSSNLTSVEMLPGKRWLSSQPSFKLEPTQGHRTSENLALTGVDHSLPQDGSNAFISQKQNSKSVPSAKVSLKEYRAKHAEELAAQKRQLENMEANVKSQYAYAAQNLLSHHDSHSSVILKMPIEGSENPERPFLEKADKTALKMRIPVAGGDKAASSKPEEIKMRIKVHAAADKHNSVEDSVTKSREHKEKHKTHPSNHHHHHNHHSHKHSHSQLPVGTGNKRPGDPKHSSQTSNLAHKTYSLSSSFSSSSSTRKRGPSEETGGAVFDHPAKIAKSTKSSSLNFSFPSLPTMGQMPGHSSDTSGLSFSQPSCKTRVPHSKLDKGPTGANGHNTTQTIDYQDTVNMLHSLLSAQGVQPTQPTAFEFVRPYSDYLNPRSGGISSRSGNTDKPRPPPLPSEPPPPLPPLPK
Outline: as §3

Aurora A kinase = molecular target: T1, Aurora A kinase (Homo sapiens, UniProt O14965); assay: Aurora-A (human) kinase assay (Kemptide substrate); type: biochemical; settings: pIC50 is -log(IC50, M); 15 μM ATP; read-out: Kinase Inhibition pIC50 Aurora A kinase (converted)
T1 construct: purchased
T1 sequence (O14965 1-403): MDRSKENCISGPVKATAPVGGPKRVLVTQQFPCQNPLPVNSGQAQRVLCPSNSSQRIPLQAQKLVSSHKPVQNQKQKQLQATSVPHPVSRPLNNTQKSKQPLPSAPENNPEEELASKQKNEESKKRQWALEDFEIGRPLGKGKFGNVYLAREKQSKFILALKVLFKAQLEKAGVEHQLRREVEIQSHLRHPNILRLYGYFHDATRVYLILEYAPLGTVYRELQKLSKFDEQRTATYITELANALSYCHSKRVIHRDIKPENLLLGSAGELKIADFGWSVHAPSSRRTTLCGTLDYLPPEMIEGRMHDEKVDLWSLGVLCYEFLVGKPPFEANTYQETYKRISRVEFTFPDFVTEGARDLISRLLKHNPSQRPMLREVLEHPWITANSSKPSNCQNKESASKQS
Outline: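 Radiometric filter-binding assay: commercial aurora-A kinase (5-10 ng) with 200 μM Kemptide in MOPS/EDTA pH 7.0, started with 10 mM Mg acetate and 15 μM ATP plus [γ-33P]-ATP. Incubated 40 min at room temperature, stopped with phosphoric acid, incorporated 33P counted by scintillation.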

GSK3b = GSK3b (Homo sapiens, UniProt P49841); assay: Kinase assay (radioactive phosphate incorporation), GSK-3b; type: biochemical; settings: read-out: Kinase Inhibition pIC50 GSK-3b (converted)
Sequence of GSK3b (P49841 whole entry, species assumed): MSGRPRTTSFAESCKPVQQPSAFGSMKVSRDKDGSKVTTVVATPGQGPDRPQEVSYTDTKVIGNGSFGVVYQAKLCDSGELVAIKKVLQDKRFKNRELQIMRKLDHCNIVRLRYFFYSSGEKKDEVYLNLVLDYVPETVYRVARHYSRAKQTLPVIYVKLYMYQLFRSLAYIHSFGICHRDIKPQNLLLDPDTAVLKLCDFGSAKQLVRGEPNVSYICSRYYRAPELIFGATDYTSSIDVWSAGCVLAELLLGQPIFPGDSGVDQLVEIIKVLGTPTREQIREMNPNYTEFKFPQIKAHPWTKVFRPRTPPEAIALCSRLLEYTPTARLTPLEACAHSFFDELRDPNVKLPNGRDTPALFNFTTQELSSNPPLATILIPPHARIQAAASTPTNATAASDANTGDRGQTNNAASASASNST
Description: as §2

[1] = molecular target: T2, Flt3 (FMS-like tyrosine kinase-3) (Homo sapiens, UniProt P36888); assay: Kinase assay (radioactive phosphate incorporation), Flt3; type: biochemical; settings: pIC50 is -log(IC50, M), read-out: Kinase Inhibition pIC50 Flt3 (converted)
T2 sequence (P36888 27-993): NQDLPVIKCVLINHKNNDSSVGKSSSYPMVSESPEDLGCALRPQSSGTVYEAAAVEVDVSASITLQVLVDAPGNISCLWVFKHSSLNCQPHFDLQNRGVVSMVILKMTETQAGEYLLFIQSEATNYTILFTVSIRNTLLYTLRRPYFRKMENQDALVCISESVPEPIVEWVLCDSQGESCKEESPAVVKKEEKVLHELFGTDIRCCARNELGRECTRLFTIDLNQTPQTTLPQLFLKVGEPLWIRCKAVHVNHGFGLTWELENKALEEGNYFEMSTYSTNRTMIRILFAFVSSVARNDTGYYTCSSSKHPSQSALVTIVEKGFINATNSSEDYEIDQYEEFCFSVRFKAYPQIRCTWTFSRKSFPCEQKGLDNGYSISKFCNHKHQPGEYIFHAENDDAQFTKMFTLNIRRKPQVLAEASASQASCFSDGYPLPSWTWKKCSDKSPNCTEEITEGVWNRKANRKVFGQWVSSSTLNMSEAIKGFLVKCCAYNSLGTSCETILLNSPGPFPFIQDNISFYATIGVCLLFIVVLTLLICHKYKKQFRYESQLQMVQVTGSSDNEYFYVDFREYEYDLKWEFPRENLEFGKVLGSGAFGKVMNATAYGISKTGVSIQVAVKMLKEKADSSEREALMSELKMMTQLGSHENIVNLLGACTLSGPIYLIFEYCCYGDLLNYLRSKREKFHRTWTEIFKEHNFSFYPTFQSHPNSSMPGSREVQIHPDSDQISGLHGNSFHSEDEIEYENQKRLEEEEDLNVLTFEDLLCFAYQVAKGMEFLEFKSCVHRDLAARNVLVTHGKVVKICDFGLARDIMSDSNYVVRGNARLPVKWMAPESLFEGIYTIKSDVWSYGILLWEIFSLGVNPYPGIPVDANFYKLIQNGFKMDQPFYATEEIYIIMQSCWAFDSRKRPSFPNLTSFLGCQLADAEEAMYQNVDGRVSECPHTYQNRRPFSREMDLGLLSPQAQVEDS
Outline: as §1

Sequence of CDK4-cyclin D1 (P11802 whole entry): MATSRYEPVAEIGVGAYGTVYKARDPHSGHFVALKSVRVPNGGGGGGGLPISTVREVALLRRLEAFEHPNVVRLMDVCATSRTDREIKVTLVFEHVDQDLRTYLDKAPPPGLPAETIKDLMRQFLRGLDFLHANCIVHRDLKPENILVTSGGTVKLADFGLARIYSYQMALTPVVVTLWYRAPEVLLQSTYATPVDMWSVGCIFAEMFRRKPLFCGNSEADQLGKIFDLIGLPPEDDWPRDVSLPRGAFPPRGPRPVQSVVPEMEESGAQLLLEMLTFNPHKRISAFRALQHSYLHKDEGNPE
Sequence of CDK4-cyclin D1 (P24385 whole entry partner): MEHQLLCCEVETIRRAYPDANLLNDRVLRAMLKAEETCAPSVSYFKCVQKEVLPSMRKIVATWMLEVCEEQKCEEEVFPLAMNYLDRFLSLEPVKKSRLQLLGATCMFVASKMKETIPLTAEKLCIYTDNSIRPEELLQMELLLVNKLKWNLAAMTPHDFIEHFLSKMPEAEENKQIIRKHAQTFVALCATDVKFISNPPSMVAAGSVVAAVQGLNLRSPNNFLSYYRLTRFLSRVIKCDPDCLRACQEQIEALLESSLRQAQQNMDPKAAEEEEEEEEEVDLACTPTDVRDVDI

SMILES | IC50 (CDK4-cyclin D1) [nM] | IC50 (CDK2-cyclin A) [nM] | IC50 (CDK2-cycline E) [nM] | IC50 (CDK1-cyclin B) [nM] | IC50 (CDK7/cyclin H) [nM] | IC50 (CDK9/cyclin T1) [nM] | IC50 (Aurora A kinase) [nM] | IC50 (GSK3b) [nM] | IC50 [1] [nM] | melting point [°C]
Cc1nc(C)c(-c2ccnc(Nc3cccc(S(C)(=O)=O)c3)n2)s1 [Compound 4, [4-(2,4-Dimethyl-thiazol-5-yl)-pyrimidin-2-yl]-(3-methanesulfonyl-phenyl)-amine] | 1260 | 1000 | 316 | 501 | 1000 | 251 | 251 | 398 |  | 
Cc1nc(N)sc1-c1ccnc(Nc2cccc(CNS(C)(=O)=O)c2)n1 [Compound 6, N-{3-[4-(2-Amino-4-methyl-thiazol-5-yl)-pyrimidin-2-ylamino]-benzyl}-methanesulfonamide] | 200 | 398 | 100 | 1000 | 126 | 7.94 | 126 |  | 50.1 | 
CCNc1nc(C)c(-c2ccnc(Nc3cccc(CNS(=O)(=O)C(F)(F)F)c3)n2)s1 [Compound 10, N-{3-[4-(2-Ethylamino-4-methyl-thiazol-5-yl)-pyrimidin-2-ylamino]-benzyl}-C,C,C-trifluoro-methanesulfonamide] |  | 6310 | 1580 |  | 6310 | 316 | 2000 | 6310 | 158 | 
CNc1nc(C)c(-c2ccnc(Nc3ccc(S(=O)(=O)NCCOC)cc3)n2)s1 [Compound 40, N-(2-Methoxy-ethyl)-4-[4-(4-methyl-2-methylamino-thiazol-5-yl)-pyrimidin-2-ylamino]-benzenesulfonamide] |  | 15.8 | 3.16 | 79.4 |  | 158 | 5.01 | 501 |  | 
COCCNS(=O)(=O)c1ccc(Nc2nccc(-c3sc(N)nc3C)n2)cc1 [Compound 41, 4-[4-(2-Amino-4-methyl-thiazol-5-yl)-pyrimidin-2-ylamino]-N-(2-methoxy-ethyl)-benzenesulfonamide] | 501 | 15.8 | 7.94 | 50.1 | 3160 |  | 50.1 | 794 |  | 
CCNc1nc(C)c(-c2ccnc(Nc3cccc(CC(=O)OCCOC)c3)n2)s1 [Compound 45, {3-[4-(2-Ethylamino-4-methyl-thiazol-5-yl)-pyrimidin-2-ylamino]-phenyl}-acetic acid 2-methoxy-ethyl ester] | 3160 | 3160 | 2510 | 5010 | 3980 | 398 | 15.8 |  | 100 | 
COCCNS(=O)(=O)c1cccc(Nc2nccc(-c3sc(C)nc3C)n2)c1 [Compound 56, 3-[4-(2,4-Dimethyl-thiazol-5-yl)-pyrimidin-2-ylamino]-N-(2-methoxy-ethyl)-benzenesulfonamide] |  | 3980 |  |  | 5010 | 501 | 126 | 1260 |  | 197 to 198
CCNc1nc(C)c(-c2ccnc(Nc3ccc(N4CCN(Cc5ccccc5)CC4)cc3)n2)s1 [Compound 60, [4-(4-Benzyl-piperazin-1-yl)-phenyl]-[4-(2-ethylamino-4-methyl-thiazol-5-yl)-pyrimidin-2-yl]-amine] | 158 | 3160 | 631 | 6310 | 200 | 316 | 50.1 |  | 39.8 | 

Continued, values first:

IC50 (CDK4-cyclin D1) [nM] | IC50 (CDK2-cyclin A) [nM] | IC50 (CDK2-cycline E) [nM] | IC50 (CDK1-cyclin B) [nM] | IC50 (CDK7/cyclin H) [nM] | IC50 (CDK9/cyclin T1) [nM] | IC50 (Aurora A kinase) [nM] | IC50 (GSK3b) [nM] | IC50 [1] [nM] | melting point [°C] | SMILES
1000 | 2510 | 398 | 3160 | 631 | 200 | 200 |  | 12.6 |  | CNc1nc(C)c(-c2ccnc(Nc3cccc(N4CCNCC4)c3)n2)s1 [Compound 7, [4-(4-Methyl-2-methylamino-thiazol-5-yl)-pyrimidin-2-yl]-(3-piperazin-1-yl-phenyl)-amine]
200 | 794 | 100 | 1000 | 100 | 39.8 | 63.1 |  | 79.4 |  | CCNc1nc(C)c(-c2ccnc(Nc3cccc(S(=O)(=O)NC)c3)n2)s1 [Compound 22, 3-[4-(2-Ethylamino-4-methyl-thiazol-5-yl)-pyrimidin-2-ylamino]-N-methyl-benzenesulfonamide]
251 | 794 | 15.8 |  | 100 | 3.16 |  | 631 | 79.4 |  | CCNc1nc(C)c(-c2ccnc(Nc3cccc(S(C)(=O)=O)c3)n2)s1 [Compound 28, [4-(2-Ethylamino-4-methyl-thiazol-5-yl)-pyrimidin-2-yl]-(3-methanesulfonyl-phenyl)-amine]
50.1 | 1260 | 251 | 501 | 1000 | 20 | 63.1 |  | 63.1 |  | CCNS(=O)(=O)c1cccc(Nc2nccc(-c3sc(NC)nc3C)n2)c1 [Compound 31, N-Ethyl-3-[4-(4-methyl-2-methylamino-thiazol-5-yl)-pyrimidin-2-ylamino]-benzenesulfonamide]
251 | 2000 | 398 | 6310 | 398 | 158 | 20 |  | 63.1 |  | Cc1nc(N)sc1-c1ccnc(Nc2ccc(N3CCNCC3)cc2)n1 [Compound 61, [4-(2-Amino-4-methyl-thiazol-5-yl)-pyrimidin-2-yl]-(4-piperazin-1-yl-phenyl)-amine]
